# Source: patent US20140349314A1, “METHODS AND COMPOSITIONS FOR DETECTING AND TREATING INFLAMMATORY DISEASE” (Beth Israel Deaconess Medical Center, Inc., priority 2010, published 2014)
# Where a SMILES comes first, the peptide text is derived from it. The star is where a group is joined. Cbz = O=C(OCc1ccccc1)*
# How the values were obtained:
# [1] = tested on: MP-stimulated MMP-3 mRNA expression in HSC; experiment: Signaling pathway inhibition: MP-stimulated MMP-3 mRNA expression in HSC; type: cell-based, human; settings: for inhibition of MP-stimulated MMP-3 induction: vs untreated S100-MP stimulated controls, SB 5 μg/mL, MG 15 μg/mL
# Description: In order to define major signaling pathways that lead to MMP-induction by S100-MP, we used specific inhibitors of several kinases. MP-stimulated MMP-3 mRNA expression served as fibrolytic read-out.
# Pathway inhibition experiments were performed in 24 hour serum-starved HSC. […] The proteasome inhibitor MG132 (Rockland Inc., USA) was used to block NFκB nuclear translocation and activity.
# [2] = tested on: human LX-2 hepatic stellate cells (HSC); experiment: Fibrosis-related transcript levels by quantitative RT-PCR in LX-2 HSC incubated with T cell-derived MP; type: cell-based; settings: 24 hours
# Description: Effect of S100 T Cell-MP on Fibrosis-Related Gene Expression by HSC Fibrosis related transcripts were measured from 200×10^3 serum-starved human LX-2 HSC 24 hours after addition of 1×10^3 or 50×10^3 S100-MP from Jurkat T cells using quantitative RT-PCR. S10-MP, plain medium, and ST alone served as controls. MP were obtained from PHA-activated and/or apoptotic (ST-treated) Jurkat T cells. After T cell apoptosis induction, significant changes in fibrosis-related transcripts were found with 50×10^3 S100-MP, while equivalent amounts of S10-MP had no effect (FIG. 6). […] Similar results were obtained when S100-MP were incubated with freshly isolated primary rat HSC. Here the human S100-MP induced MMP-3 even 9-fold (FIG. 7).
# For induction of apoptosis T cells were cultured in RPMI and treated with 4 μM/mL Staurosporine (ST, Cell Signaling Technology®, Danvers, Mass.) for 4 hours. […]
# (§1) HSC (200×10^3/well) were seeded into six-well cell culture plates and serum-starved as above. […] Relative transcript levels were quantified by real-time RT-PCR on a LightCycler 1.5 instrument (Roche, Mannheim, Germany) using the TaqMan methodology as described previously (52). […] Experiments were performed in triplicates and values represent means±SD, being expressed as arbitrary units relative to the housekeeping gene beta2-microglobulin.
# [3] = tested on: HSC; experiment: Apoptosis assay (Annexin V / 7-AAD FACS) in HSC; type: cell-based, human
# Description: It was reported earlier that MP derived from macrophages could trigger apoptosis in recipient cells.
# 24 hrs serum-starved HSC were incubated with S100-MP for 24 hrs. Apoptosis and necrosis induction by S100-MP were assessed by FACS analysis for Annexin V and 7-aminoactinomycin D staining (both from eBioscience™, San Diego, Calif., USA) on a LSR2 FACS analyzer with CELLQuest software (Becton Dickinson, San Jose, Calif.).
# [4] = tested on: TGFβ1 (5 ng/mL)-activated HSC; experiment: Fibrosis-related transcript levels in TGFβ1-activated HSC incubated with S100-MP; type: cell-based, human; settings: 5 ng/mL TGFβ1
# Description: FIG. 9 is a series of graphs showing mRNA transcript levels of the indicated gene in TGFβ1 (5 ng/mL)-activated HSC when incubated with the indicated amount of S100-MP for 24 hours. All experiments were performed at least twice with n=3-4 per group. Results (means±SD) are expressed as arbitrary units relative to beta2-microglobulin mRNA; *p<0.05 vs. medium control.
# Human HSC were exposed to 5 ng/mL TGFβ1, which elicits a strong fibrogenic response. […] Thus TGFβ1 enhanced HSC procollagen α1(I) expression 2.7-fold, which after MP addition was reduced by almost 40%, and MP increased the expression of MMP-3 and MMP-13 almost 2.5- and 2.1-fold, respectively.
# as §1, with “above. HSC were then incubated with 1×10^3 or 50×10^3 S10-MP or S100-MP for 24 hours, followed by total RNA extraction from cells using TRIzol (Invitrogen, Carlsbad, Calif.). One μg of RNA was reverse-transcribed using random primers and Superscript RNase H-reverse transcriptase (Invitrogen).” for “above.”
# [5] = tested on: HSC; experiment: MMP transcript levels in HSC after S100-MP with or without TNFα; type: cell-based, human
# Description: FIG. 13C is a graph showing mRNA transcript levels of the indicated MMP gene in HSC after addition of S100-MP with or without TNFα (10 ng/mL) for 24 h (*p<0.05, **p=0.04, ***p=0.001).
# It remained to be shown what cell membrane molecule(s) or receptor(s) mediate(s) attachment and uptake of S100-MP by HSC. […] Assuming that ICAM-1 on the recipient HSC is engaged by CD11a/CD18 on the S100-MP, any treatment of HSC that increases CD54 should enhance MP uptake and subsequent fibrolytic activation of HSC. We therefore incubated HSC with 10 ng/mL TNF-α, a strong inducer of CD54, which induced a robust (>10-fold) upregulation of CD54 after 24 hrs (FIG. 13B). This led to a further significant MP-induced increase (by 40%) of MMP-3 mRNA expression in the induced HSC as compared to untreated HSC (FIG. 13C). […] For MMP-3 the effect of combined TNF-α and MP treatment was overadditive as compared to the added effects of TNF-α or S100-MP alone (FIG. 13C).
# [6] = tested on: CD54 (ICAM-1) on HSC; experiment: ICAM-1 (CD54) upregulation on HSC by TNFα (flow cytometry); type: cell-based, human
# Description: TNFα (PEPROTECH®, Rocky Hill, N.J., USA) was added to HSC cultures, and ICAM-1 expression assessed after 2, 4 and 24 hrs by flow cytometric analysis using anti-ICAM-1-FITC (eBioscience™, San Diego, Calif., USA) on a LSR2 FACS analyzer as described above.
compound,measurement,setting,value
CC(C)C[C@@H](C=O)NC(=O)[C@H](CC(C)C)NC(=O)[C@H](CC(C)C)NC(=O)OCc1ccccc1 [MG132] (Cbz-Leu-Leu-Leu-aldehyde),inhibition of MP-stimulated MMP-3 induction,[1],50%
"CN[C@@H]1C[C@H]2O[C@@](C)([C@@H]1OC)n1c3ccccc3c3c4c(c5c6ccccc6n2c5c31)C(=O)NC4 [ST, staurosporine]","effect on fibrosis-related gene expression (MMPs, TIMP-1, procollagen α1(I)) in HSC, in words",[2],induced only MMP-9
same,"apoptosis or necrosis induction in HSC, in words","[3]; 24 hours of incubation, ST 0.04 μM/mL",induced apoptosis
same,late apoptosis of HSC,"[3]; 24 hours, ST alone",≤ 10%
same,necrosis of HSC,"[3]; 24 hours, ST alone",up to 14%
same,higher percentage of late apoptotic HSC compared to S100-MP,"[3]; ST 0.04 μM/mL, 7-AAD/Annexin FACS",7 fold
C[S+]([O-])c1ccc(-c2nc(-c3ccncc3)c(-c3ccc(F)cc3)[nH]2)cc1 (stereo not drawn) [SB203580],inhibition of MP-stimulated MMP-3 induction,[1],50%
N#CC(=C(/N)Sc1ccccc1N)/C(C#N)=C(\N)Sc1ccccc1N [U0126],"effect on MP-stimulated MMP-3 mRNA, in words",[1],Complete abrogation
TGFβ1: profibrogenic cytokine used to activate HSC,enhancement of HSC procollagen α1(I) expression,[4],2.7 fold
TNF-α,further MP-induced increase of MMP-3 mRNA in TNF-α-induced HSC as compared to untreated HSC,"[5]; TNF-α 10 ng/mL plus S100-MP, 24 h",40%
same,effect of TNF-α alone on HSC MMP-3 mRNA,[5]; TNF-α alone,not capable to enhance
same,effect of TNF-α alone on HSC MMP-9 and MMP-13 expression,[5]; TNF-α alone,modestly induced
same,effect of combined TNF-α and MP treatment on MMP-3 compared to added single effects,[5]; TNF-α plus S100-MP,overadditive
same,upregulation of CD54 on HSC,"[6]; 10 ng/mL TNF-α, after 24 hrs",> 10 fold
same,upregulation of CD54 on HSC,"[6]; TNFα 10 ng/mL for 0, 4, and 24 hours",40%
